Measured values: ChEMBL document CHEMBL5291721, “A preclinical secondary pharmacology resource illuminates target-adverse drug reaction associations of marketed drugs” (Nat Commun, 2023)

Experiments:
[1] = molecular target: Glucagon receptor (Homo sapiens, UniProt P47871)
[2] = molecular target: T1, Progesterone receptor (Homo sapiens, UniProt P06401)
T1 sequence (P06401 whole entry): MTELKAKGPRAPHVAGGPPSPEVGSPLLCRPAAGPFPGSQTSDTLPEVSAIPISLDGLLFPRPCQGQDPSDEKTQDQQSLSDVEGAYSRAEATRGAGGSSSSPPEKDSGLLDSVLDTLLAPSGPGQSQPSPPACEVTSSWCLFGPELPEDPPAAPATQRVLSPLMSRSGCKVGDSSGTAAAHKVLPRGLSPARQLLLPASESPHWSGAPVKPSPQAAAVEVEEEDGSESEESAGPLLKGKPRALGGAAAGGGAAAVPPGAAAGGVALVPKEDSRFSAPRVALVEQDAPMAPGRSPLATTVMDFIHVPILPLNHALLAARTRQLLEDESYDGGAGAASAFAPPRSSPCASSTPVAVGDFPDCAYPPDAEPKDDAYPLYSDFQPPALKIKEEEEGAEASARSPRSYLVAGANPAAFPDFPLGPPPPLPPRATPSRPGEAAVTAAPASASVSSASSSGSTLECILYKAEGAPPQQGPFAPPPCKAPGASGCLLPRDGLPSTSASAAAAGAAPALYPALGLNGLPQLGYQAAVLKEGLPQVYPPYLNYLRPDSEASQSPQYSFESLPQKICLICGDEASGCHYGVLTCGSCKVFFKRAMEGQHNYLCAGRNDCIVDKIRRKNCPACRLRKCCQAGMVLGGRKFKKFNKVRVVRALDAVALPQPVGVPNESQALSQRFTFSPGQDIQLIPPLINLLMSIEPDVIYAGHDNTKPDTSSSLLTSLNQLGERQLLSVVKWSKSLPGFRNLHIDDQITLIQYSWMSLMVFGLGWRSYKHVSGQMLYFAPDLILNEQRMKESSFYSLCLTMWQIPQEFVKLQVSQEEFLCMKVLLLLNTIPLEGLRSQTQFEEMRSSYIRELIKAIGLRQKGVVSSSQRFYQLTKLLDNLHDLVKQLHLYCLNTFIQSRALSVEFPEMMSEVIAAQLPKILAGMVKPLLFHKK

[3] = molecular target: T2, Alpha-2A adrenergic receptor (Homo sapiens, UniProt P08913)
T2 sequence (P08913 whole entry): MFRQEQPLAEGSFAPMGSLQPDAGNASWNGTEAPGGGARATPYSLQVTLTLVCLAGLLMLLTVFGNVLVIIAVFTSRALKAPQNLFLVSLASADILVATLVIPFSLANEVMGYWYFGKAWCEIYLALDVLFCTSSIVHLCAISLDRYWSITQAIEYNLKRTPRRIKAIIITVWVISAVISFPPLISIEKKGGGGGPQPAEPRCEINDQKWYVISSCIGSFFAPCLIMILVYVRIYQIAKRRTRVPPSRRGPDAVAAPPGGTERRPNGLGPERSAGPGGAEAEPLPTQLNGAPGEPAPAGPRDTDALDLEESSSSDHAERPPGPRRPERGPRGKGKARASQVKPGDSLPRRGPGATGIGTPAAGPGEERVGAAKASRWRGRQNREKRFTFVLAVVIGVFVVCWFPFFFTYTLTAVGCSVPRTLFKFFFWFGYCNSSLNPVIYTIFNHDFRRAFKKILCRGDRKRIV

[4] = molecular target: T3, 5-hydroxytryptamine receptor 1A (Homo sapiens, UniProt P08908)
T3 sequence (P08908 whole entry): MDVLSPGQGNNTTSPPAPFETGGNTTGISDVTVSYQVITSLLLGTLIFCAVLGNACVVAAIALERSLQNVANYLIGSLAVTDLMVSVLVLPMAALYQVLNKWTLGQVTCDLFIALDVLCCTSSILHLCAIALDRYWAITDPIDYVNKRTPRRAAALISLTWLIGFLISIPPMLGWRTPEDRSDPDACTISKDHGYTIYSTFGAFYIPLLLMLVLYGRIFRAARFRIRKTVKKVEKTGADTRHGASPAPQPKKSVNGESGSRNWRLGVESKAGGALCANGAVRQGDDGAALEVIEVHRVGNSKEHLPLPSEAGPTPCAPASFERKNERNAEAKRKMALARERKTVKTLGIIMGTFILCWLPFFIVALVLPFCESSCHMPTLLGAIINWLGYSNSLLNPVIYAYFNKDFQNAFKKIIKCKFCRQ

[5] = molecular target: D(1A) dopamine receptor (Homo sapiens, UniProt P21728)
Chain of D(1A) dopamine receptor (P21728 whole entry): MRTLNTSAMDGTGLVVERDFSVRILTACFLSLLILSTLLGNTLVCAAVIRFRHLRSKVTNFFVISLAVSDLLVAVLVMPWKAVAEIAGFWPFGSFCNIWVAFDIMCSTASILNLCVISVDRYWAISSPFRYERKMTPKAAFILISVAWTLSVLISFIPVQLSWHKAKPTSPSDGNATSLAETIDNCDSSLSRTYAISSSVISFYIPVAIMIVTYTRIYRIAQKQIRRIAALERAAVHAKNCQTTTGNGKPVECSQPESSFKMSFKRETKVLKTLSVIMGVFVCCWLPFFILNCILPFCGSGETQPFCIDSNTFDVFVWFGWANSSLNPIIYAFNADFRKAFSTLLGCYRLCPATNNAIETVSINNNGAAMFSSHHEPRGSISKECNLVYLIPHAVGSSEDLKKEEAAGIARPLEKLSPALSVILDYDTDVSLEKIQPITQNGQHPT

[6] = molecular target: Gamma-aminobutyric acid receptor subunit alpha-1/alpha-2/beta-2/gamma-2 (Homo sapiens, UniProt P14867+P18507+P47869+P47870); assay type: functional, cell-based
Chain of Gamma-aminobutyric acid receptor subunit alpha-1/alpha-2/beta-2/gamma-2 (P14867 whole entry): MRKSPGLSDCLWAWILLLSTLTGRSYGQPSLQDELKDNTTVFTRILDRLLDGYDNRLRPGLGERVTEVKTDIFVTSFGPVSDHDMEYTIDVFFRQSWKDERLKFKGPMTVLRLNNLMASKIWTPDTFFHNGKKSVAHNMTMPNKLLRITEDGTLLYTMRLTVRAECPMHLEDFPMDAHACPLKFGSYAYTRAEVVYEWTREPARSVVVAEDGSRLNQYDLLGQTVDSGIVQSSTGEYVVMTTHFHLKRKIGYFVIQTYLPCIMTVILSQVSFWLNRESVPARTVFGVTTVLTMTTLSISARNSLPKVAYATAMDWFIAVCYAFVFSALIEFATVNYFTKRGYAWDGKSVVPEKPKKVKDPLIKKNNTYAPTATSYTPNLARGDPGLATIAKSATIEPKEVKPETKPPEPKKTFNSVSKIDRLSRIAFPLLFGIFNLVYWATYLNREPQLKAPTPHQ
Chain of Gamma-aminobutyric acid receptor subunit alpha-1/alpha-2/beta-2/gamma-2 (P47870 whole entry): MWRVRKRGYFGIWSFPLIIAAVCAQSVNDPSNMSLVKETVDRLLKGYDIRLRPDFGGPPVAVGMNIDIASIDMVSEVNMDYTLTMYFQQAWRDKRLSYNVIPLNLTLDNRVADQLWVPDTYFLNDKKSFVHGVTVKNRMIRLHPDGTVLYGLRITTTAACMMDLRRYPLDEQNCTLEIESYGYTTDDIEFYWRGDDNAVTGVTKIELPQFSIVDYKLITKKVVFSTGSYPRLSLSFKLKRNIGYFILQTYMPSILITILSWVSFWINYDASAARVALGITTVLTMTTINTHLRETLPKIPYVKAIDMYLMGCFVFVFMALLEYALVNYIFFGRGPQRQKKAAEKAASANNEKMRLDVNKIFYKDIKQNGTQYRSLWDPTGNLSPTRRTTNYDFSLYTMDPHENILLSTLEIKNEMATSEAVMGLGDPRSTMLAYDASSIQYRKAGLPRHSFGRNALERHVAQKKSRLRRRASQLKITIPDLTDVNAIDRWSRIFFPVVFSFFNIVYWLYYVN
Chain of Gamma-aminobutyric acid receptor subunit alpha-1/alpha-2/beta-2/gamma-2 (P18507 whole entry): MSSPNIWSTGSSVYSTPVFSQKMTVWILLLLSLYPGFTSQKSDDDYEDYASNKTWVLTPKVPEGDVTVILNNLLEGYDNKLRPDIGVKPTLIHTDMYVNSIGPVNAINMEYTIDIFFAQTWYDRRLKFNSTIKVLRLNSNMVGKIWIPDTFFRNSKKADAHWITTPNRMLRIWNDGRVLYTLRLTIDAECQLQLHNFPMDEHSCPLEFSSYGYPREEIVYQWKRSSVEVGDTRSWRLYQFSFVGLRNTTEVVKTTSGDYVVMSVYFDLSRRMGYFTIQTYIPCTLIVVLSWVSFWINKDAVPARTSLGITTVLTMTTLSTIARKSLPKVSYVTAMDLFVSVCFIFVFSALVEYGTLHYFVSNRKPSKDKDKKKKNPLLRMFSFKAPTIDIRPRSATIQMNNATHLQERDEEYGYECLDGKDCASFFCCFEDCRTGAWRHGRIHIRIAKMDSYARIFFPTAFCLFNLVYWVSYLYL
Chain of Gamma-aminobutyric acid receptor subunit alpha-1/alpha-2/beta-2/gamma-2 (P47869 whole entry): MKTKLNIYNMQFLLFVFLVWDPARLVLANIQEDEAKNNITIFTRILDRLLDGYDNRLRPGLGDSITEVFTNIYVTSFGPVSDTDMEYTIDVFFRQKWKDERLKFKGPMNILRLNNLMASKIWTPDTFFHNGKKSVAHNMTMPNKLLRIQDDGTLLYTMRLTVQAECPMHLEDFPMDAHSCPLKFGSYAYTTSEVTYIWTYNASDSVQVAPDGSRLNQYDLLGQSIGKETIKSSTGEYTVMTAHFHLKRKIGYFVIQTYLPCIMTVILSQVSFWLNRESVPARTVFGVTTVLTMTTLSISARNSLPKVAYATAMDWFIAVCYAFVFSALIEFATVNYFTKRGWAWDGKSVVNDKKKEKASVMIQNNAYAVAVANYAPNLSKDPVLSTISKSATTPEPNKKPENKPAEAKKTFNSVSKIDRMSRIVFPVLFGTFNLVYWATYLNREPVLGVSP

[7] = molecular target: T4, Androgen receptor (Rattus norvegicus, UniProt P15207); assay type: functional
T4 sequence (P15207 whole entry): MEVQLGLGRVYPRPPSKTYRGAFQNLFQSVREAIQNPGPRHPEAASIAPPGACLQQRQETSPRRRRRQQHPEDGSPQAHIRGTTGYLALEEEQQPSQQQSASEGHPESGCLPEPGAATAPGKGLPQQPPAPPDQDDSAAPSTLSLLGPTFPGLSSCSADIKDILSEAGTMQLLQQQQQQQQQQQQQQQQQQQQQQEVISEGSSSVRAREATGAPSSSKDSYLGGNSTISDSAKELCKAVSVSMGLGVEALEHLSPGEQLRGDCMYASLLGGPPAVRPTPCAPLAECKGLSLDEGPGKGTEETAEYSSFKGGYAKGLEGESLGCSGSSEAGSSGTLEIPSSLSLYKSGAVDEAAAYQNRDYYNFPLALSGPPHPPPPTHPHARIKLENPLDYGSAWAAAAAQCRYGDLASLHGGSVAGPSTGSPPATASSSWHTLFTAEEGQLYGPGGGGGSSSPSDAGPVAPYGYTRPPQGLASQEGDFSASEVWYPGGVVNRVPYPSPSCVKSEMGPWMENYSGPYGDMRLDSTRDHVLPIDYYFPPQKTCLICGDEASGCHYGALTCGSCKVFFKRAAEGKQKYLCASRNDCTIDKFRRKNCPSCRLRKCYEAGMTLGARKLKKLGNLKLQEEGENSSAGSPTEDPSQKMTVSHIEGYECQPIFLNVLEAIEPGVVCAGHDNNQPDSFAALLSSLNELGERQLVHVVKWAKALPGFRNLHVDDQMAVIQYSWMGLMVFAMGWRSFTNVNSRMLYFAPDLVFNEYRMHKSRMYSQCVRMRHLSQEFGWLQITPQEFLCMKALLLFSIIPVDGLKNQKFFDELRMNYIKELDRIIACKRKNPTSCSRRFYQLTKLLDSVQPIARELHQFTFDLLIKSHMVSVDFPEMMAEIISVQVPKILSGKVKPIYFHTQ
Note: assay procedure not described here.

Chain of Glucagon receptor (P47871 whole entry): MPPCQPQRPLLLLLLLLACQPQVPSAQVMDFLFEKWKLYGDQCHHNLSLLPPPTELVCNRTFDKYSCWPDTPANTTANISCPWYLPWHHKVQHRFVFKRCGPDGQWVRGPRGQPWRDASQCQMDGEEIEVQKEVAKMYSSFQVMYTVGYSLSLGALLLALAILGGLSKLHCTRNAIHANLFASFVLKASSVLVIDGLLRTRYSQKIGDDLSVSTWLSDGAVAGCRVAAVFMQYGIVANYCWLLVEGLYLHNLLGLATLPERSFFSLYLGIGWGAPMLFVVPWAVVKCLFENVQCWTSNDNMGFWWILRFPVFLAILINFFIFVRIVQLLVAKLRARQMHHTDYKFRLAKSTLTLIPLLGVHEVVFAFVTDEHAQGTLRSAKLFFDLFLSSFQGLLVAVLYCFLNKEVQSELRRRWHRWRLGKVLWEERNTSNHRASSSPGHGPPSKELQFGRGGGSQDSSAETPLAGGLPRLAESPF

SMILES | AC50 [1] [µM] | AC50 [2] [µM] | AC50 [3] [µM] | AC50 [4] [µM] | AC50 [5] [µM] | AC50 [6] [µM] | AC50 [7] [µM]
O=C(O)COCCN1CCN(C(c2ccccc2)c2ccc(Cl)cc2)CC1 (centres undefined) [CETIRIZINE] | > 30 | > 30 | > 10 | > 10 |  |  | 
C[C@@H]1C[C@H]2[C@@H]3C[C@H](F)C4=CC(=O)C=C[C@]4(C)[C@@]3(F)[C@@H](O)C[C@]2(C)[C@@]1(OC(=O)c1ccco1)C(=O)SCF [FLUTICASONE FUROATE] | > 10 |  | > 10 | > 10 | > 10 |  | 
OC[C@H]1O[C@@H](n2cnc3c2NC=NC[C@H]3O)C[C@@H]1O [PENTOSTATIN] |  |  |  |  |  | > 30 | 
CCCN1CC(NS(=O)(=O)N(CC)CC)CC2Cc3c(O)cccc3CC21 (centres undefined) [QUINAGOLIDE] |  |  |  |  |  |  | > 30
NC[C@H]1CC[C@H](C(=O)Oc2ccc(CCC(=O)O)cc2)CC1 [CETRAXATE] |  |  |  |  |  | > 30 | 
CN(C)C/C=C/C(=O)Nc1cc2c(Nc3ccc(F)c(Cl)c3)ncnc2cc1O[C@H]1CCOC1 [AFATINIB] |  |  |  |  |  | > 30 | > 30
CC(O)(CS(=O)(=O)c1ccc(F)cc1)C(=O)Nc1ccc(C#N)c(C(F)(F)F)c1 (centres undefined) [BICALUTAMIDE] | > 30 | > 30 | > 10 | > 10 | > 10 |  | 
CN[C@@H](C)[C@@H](O)c1ccccc1 [PSEUDOEPHEDRINE] | > 30 | > 30 | > 10 | > 10 | > 10 |  | 
CCOC(=O)c1c(CSc2ccccc2)n(C)c2cc(Br)c(O)c(CN(C)C)c12 [UMIFENOVIR] |  |  |  |  |  |  | > 30
C[N+](C)(C)CCOP(=O)([O-])OC[C@H](O)CO |  |  |  |  |  |  | > 30
CN(C)CCCN1c2ccccc2CCc2ccccc21 [IMIPRAMINE] | > 30 | > 30 | > 10 | > 10 | 3.2 |  | 
CN(Cc1cnc2nc(N)nc(N)c2n1)c1ccc(C(=O)N[C@@H](CCC(=O)O)C(=O)O)cc1 [METHOTREXATE] | > 30 | > 30 | > 10 | > 10 | > 10 |  | 
CC(=O)O[C@]1(C(C)=O)CC[C@H]2[C@@H]3C=C(Cl)C4=CC(=O)[C@@H]5C[C@@H]5[C@]4(C)[C@H]3CC[C@@]21C [CYPROTERONE ACETATE] |  |  | > 10 | > 10 | > 10 |  | 
CCOC(=O)C1=C(C)NC(C)=C(C(=O)OCC)C1c1ccccc1/C=C/C(=O)OC(C)(C)C [LACIDIPINE] |  |  |  |  |  |  | > 30
O=S1(=O)CCN(CN2CCS(=O)(=O)NC2)CN1 [TAUROLIDINE] |  |  |  |  |  | > 30 | > 30
O=C(/C=C/c1cccc(S(=O)(=O)Nc2ccccc2)c1)NO [BELINOSTAT] | > 10 | > 30 | > 10 | > 10 | > 10 |  | 
CC(C)c1cccc(C(C)C)c1O [PROPOFOL] |  |  |  |  |  | 2 | > 30
CCC1(c2ccc(N)cc2)CCC(=O)NC1=O (centres undefined) [AMINOGLUTETHIMIDE] |  |  |  |  |  | > 30 | > 30
CNCCc1ccc(OC(=O)C(C)C)c(OC(=O)C(C)C)c1 [IBOPAMINE] |  |  |  |  |  | > 30 | > 30
O=C1OC(OC(=O)c2cccnc2Nc2cccc(C(F)(F)F)c2)c2ccccc21 (centres undefined) [TALNIFLUMATE] |  |  |  |  |  | > 30 | > 30
